Measured values published in patent US12006289B2, “Potassium channel inhibitors” (Saniona A/S, priority 2019, dated 2024).

Key:
[1] = statement in words; cited from earlier work
[2] = tested on: mouse model of ARDS; conditions: treatment with classical KCa3.1 inhibitors; cited from earlier work
[3] = biological target: erythrocyte KCa3.1 channels (Homo sapiens (Human), UniProt O15554); test: Erythrocyte KCa3.1 assay; type: cell-based; conditions: human erythrocytes, A23187-activated, 37° C.; read-out: RBC K (in vitro) Human IC50
Procedure: Human blood was drawn from healthy human volunteers in a standard heparinized blood sampling vial (Vacutainer, Li/heparin, BD Bioscience, Plymouth, UK). The erythrocytes were packed by centrifugation, and the plasma and buffy coat were removed by aspiration. Erythrocytes were washed three times in the experimental salt solution and then stored at 0° C. until use. Blood samples from NMRI mice or from Wistar rats were treated similarly. The methodological principle is outlined in Macey et al. (1978) and further described in Strøbæk et al. (2013). Activation of the erythrocyte KCa3.1 channels were obtained by addition of the Ca^2+ ionophore A23187, which causes synchronized hyperpolarization, which is reported as a CCCP-mediated shift in the unbuffered extracellular pH of the erythrocyte suspension. Standard procedure: 3 mL unbuffered experimental salt solution (in mM: 2 KCl, 154 NaCl, 0.05 CaCl2) was heated to 37° C. with stirring. Packed erythrocytes were added (50 μL, final cytocrit 1.5%), and the extracellular pH (pHo) followed with a glass/calomel (pHG200-8/REF200, Radiometer, Denmark) electrode pair. CCCP (3 μL, final concentration 20 μM) was added followed by varying concentrations of test compounds (DMSO concentration constant). After pH stabilization at ˜7.2, A23187 (3 μL, final concentration 0.33 μM) was added to initiate the experiment. After the peak hyperpolarization was attained, the intracellular pH (pHi constant during the experiment) was found by haemolysing the erythrocytes via addition of 100 μL of Triton-X100.
The erythrocyte membrane potential, Vm, was calculated according to: Vm=−61.5 mV×(pHo−pHi) and the fractional remaining Ca^2+-activated K^+-conductance at the concentration C of blocker, fGK(C), was calculated from
[formula] where the K^+ equilibrium potential EK=−107 mV, the Cl^− equilibrium potential ECl=−12 mV and the Vm(0) and Vm(C) are the peak hyperpolarizations in the control and in the presence of a concentration of C of blocker respectively.
IC50 values for compounds were calculated from a plot of fGK(C) versus C by a fit to the Hill equation, using a custom program written in the IGOR-Pro software (WaveMetrics, Lake Oswego, OR, USA). All IC50-values are reported in μM.

[4] = Solubility of compounds in 50 mM phosphate buffer pH 7.4 by HPLC; type: physicochemical
Procedure: Solubility is calculated using the following formula: […]

[5] = 50 mM potassium phosphate buffer pH 7.40, 16 hr at ~25° C., 1600 μM incubation concentration

| IC50 [3] [nM] | Measured Solubility in pH 7.4 phosphate buffer (μM) (rounded) ([4]; 16 h, pH 7.4) | Measured Solubility in pH 7.4 phosphate buffer (mg/ml) [4, 5] [mg/ml] | Measured Solubility in pH 7.4 phosphate buffer (μM) (rounded) [4, 5] | Compound | Water solubility [1] | Gas exchange in mouse model of ARDS [2] |
| --- | --- | --- | --- | --- | --- | --- |
| – | – | – | – | Clc1ccccc1C(c1ccccc1)(c1ccccc1)n1cccn1 [TRAM-34] | extremely low water solubility | improved gas exchange |
| – | – | – | – | NC(=O)C(c1ccccc1)(c1ccc(F)cc1)c1ccc(F)cc1 [senicapoc] | extremely low water solubility | improved gas exchange |
| 360 | 1700 | – | – | COC(=O)N(C[C@@H]1CCN1)C1(c2ccc(F)c(C(F)(F)F)c2)CC1 [[53], Methyl (S)-(azetidin-2-ylmethyl)(1-(4-fluoro-3-(trifluoromethyl)phenyl)-cyclopropyl)carbamate] | – | – |
| 81 | 1500 | – | – | COC(=O)N(C[C@H]1CCCN1C)C1(c2ccc(F)c(C(F)(F)F)c2)CC1 [[31], Methyl (R)-(1-(4-fluoro-3-(trifluoromethyl)phenyl)cyclopropyl)((1-methylpyrrolidin-2-yl)methyl)carbamate] | – | – |
| 200 | 1600 | – | – | CC(C)OC(=O)N(C[C@@H]1CCCN1)C1(c2ccc(F)c(C(F)(F)F)c2)CC1 [[44], Isopropyl (S)-(1-(4-fluoro-3-(trifluoromethyl)phenyl)cyclopropyl)(pyrrolidin-2-ylmethyl)carbamate] | – | – |
| 14 | 1500 | – | – | CC(C)(N)CN(CC1CC1)C1(c2ccc(F)c(C(F)(F)F)c2)CC1 [[8], N1-(cyclopropylmethyl)-N1-(1-(4-fluoro-3-(trifluoromethyl)phenyl)cyclopropyl)-2-methyl propane-1,2-diamine] | – | – |
| 400 | – | 0.5636 | 1500 | COC(=O)N(CC(C)(C)N)C1(c2cc(C(F)(F)F)c(F)cn2)CC1 [[17], Methyl (2-amino-2-methylpropyl)(1-(5-fluoro-4-(trifluoromethyl)pyridin-2-yl)cyclopropyl) carbamate] | – | – |
| 160 | – | 0.5599 | 1600 | COC(=O)N(CC1(N)CC1)C1(c2ccc(F)c(C(F)(F)F)c2)CC1 [[3], Methyl ((1-aminocyclopropyl)methyl)(1-(4-fluoro-3-(trifluoromethyl)phenyl)cyclopropyl) carbamate] | – | – |
| 86 | 1600 | – | – | COC(=O)N(CC(C)(C)N)C1(c2ccc(F)c(C(F)(F)F)c2)CC1 [[2], Methyl (2-amino-2-methylpropyl)(1-(4-fluoro-3-(trifluoromethyl)phenyl)cyclopropyl)carbamate] | – | – |
